Results on three substances are retold here after patent US11001615B2, “Mutated tau protein fragment and use thereof” (ADEL INC., priority 2016, dated 2021).

Square brackets hold non-standard residues; d marks the D form. Ends that are not written are not given here. pT = C[C@@H](OP(=O)(O)O)[C@H](N)C(=O)O

Assay [1] deals with Tau-P301L dementia mice. Put plainly: ELISA using plasma: antibody production against modified tau protein fragments. Type of assay: in vivo. The conditions noted are these: ELISA using plasma after final administration; fragment with KLH and aluminum adjuvant, IP. How it is done:
(§1) JNPL3 mice expressing Tau-P301L mutant gene were purchased from Taconic, and back-crossed with C57bl/6 mice for five generations in the experimental animal room of the Asan Institute for Life Sciences. Then, the mice were raised under a specific pathogen free (SPE) condition. For active immunization, the mice were administered, for six months starting from three months after birth at intervals of two weeks, two weeks, four weeks, four weeks, five weeks, four weeks, and one week in this order, the four modified tau protein fragments prepared in Preparation Example 1 together with keyhole limpet hemocyanin (KLH) as a carrier and an aluminum adjuvant. At this time, administration was carried out through intraperitoneal injection (IP injection). The dementia mice which were actively immunized by administration of the K280-ac fragment were designated as Tau-P301L-K280-ac.
In order to identify whether antibodies against the four modified tau protein fragments prepared in Preparation Example 1 were produced, the respective modified tau protein fragments or the full-length tau protein was finally administered, and then ELISA was performed using plasma.

The subject of assay [2] is Tau-P301L dementia mice. Put plainly: Water maze test. Type of assay: in vivo. The conditions noted are these: 5th day, platform removed; ranking after K280-ac. As for the experimental part:
as §1
An underwater maze test was performed to evaluate a learning and memory ability of the mice. […] Specifically, the underwater maze test took a total of 5 days. The mice were trained for 4 days in a state where a platform and a visual cue for the platform location are placed.
The learning was conducted by filling a swimming pool (1.4 m in diameter, 45 cm in depth) having a platform with water (29±0.5° C.) to a depth of about 26.5 cm, and then 1.5 L of whole milk powder was added to make water cloudy so that the mice can remember the platform with the cue only. Then, the mice were adapted to freely swim for 60 seconds and allowed to rest on the platform for 1 minute. The experiment was performed over a total of 12 times with 4 sets at three different starting positions. At the end of each test, 30 seconds of break time was given. At the end of one set, 30 to 45 minutes of break time was given.
After 4 days of learning, the test was performed on the 5th day. In the experiment for evaluation, the platform was not placed, and the number of staying in the area where the platform has been placed was measured in order to identify whether the mice visit well the platform location using the cue only. The test time was set for the mice to arrive at the location where the platform had been placed within one minute. If the mice fail to arrive at the platform location within one minute, the mice were removed out of the swimming pool.

On to “Glu391: protein fragment having the 381st to 391st amino acid sequence section of the tau protein in which the C-terminus of the 391st amino acid is truncated (NAKAKTDHGAE)”, for which, in assay [1], the “antibodies against the fragment produced” value is given as “well produced”. The “number of arrivals, ranking among fragments” value (from here on “number of arrivals”) in assay [2] is recorded as “next highest increased number of arrivals”.

For the substance “VQIVYK-ac: protein fragment having the 303rd to 316th amino acid sequence section of the tau protein in which the 306th to 311th amino acids are acetylated (GGSVQIVYKPVDLS; also: residues 306-311 (VQIVYK) acetylated; listed as Homo sapiens)”, the “antibodies against the fragment produced” value in assay [1] was “not well produced”. Also, in assay [2], the “number of arrivals” value was “next highest increased number of arrivals”.

Turning to “pT231: protein fragment having the 226th to 236th amino acid sequence section of the tau protein in which the 231st amino acid is phosphorylated (VAVVR[pT]PPKSP)”, in assay [1], the “antibodies against the fragment produced” value is “well produced”. Further, the “number of arrivals” value in assay [2] was “lowest number of times to arrive at the platform”.
